Values quoted from earlier work, collected in patent US7521425B2, “Anti-angiogenic compounds” (Covx Technologies Ireland Limited, priority 2005, dated 2009).

Columns and labels:
h38C2 = conditions: against immobilized BSA-conjugated β-diketone 1, read-out: apparent equilibrium dissociation constant
m38C2 = conditions: against immobilized BSA-conjugated β-diketone 1, read-out: apparent equilibrium dissociation constant

Structure (SMILES)	Kd (h38C2)	Kd (m38C2)
CC(=O)CC(C)=O [β-diketone 2]	7.6 µM	38 µM
CC(=O)CC(=O)CCc1ccccc1 [β-diketone 3]	1 µM	0.43 µM
